Results on 47 molecules are retold here after BindingDB's records for patent US20250313563 (The Broad Institute, 2025).

Where “and” joins values, the source holds several entries; their conditions need not be identical. Identical values can stand only once.

The target in assay [1] is Glycogen synthase kinase-3 alpha (Homo sapiens, UniProt P49840). The assay can be described thus: TR-FRET Assay. The method, boiled down: (§1)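 TR-FRET readout: streptavidin-d2 (40 nM in added detection mix) plus Tb-anti-pSer641 Ab (2 nM in mix). Steps were 30 min compound preincubation, kinase reaction, then EDTA stop.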
Sequence of Glycogen synthase kinase-3 alpha (P49840 whole entry): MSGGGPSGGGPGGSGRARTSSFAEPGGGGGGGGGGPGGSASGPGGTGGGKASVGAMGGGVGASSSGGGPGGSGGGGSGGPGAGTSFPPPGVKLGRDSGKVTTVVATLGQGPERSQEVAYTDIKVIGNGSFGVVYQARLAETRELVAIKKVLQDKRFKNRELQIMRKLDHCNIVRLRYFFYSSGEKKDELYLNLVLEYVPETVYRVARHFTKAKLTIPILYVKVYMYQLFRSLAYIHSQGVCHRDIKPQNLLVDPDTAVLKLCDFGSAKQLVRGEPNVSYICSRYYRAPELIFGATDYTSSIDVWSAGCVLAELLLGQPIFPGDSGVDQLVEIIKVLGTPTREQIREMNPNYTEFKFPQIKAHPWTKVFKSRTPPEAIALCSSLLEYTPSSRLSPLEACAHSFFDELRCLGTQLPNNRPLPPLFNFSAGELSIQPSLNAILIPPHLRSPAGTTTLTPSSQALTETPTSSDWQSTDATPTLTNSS
The target in assay [2] is Glycogen synthase kinase-3 beta (Homo sapiens, UniProt P49841). The assay can be described thus: TR-FRET Assay. An outline of the steps:
as §1

Sequence of Glycogen synthase kinase-3 beta (P49841 whole entry): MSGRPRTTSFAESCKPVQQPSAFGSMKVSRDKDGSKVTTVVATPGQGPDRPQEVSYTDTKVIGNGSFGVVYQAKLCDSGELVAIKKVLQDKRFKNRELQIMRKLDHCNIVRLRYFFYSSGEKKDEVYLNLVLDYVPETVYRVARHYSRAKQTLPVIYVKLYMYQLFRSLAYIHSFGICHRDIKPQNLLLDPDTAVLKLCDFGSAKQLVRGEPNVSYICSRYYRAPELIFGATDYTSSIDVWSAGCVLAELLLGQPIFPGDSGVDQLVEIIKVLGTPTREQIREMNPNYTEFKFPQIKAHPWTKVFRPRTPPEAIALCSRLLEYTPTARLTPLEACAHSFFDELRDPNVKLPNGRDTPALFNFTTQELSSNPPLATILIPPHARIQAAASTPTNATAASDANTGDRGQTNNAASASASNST

As for `CC[C@@]1(c2cccc(-c3ccncc3OC)c2)C2=CN=NC2NC2=C1C(=O)CC(C)(C)C2` (some centres undefined) [US20250313563, Compound 945471], the IC50 in assay [1] was 1 to 5 µM and > 5 µM; in assay [2], 1 to 5 µM and > 5 µM.
For the molecule `CC1(C)CC(=O)C2=C(C1)NC1=C(CN=N1)C21CN(C2CCOCC2)C1` [US20250313563, Compound 932651], the IC50 in assay [1] and in assay [2] was > 5 µM throughout.
For the molecule `CC[C@@]1(c2cccc(-c3ccnc(C(F)(F)F)c3)c2)C2=CN=NC2NC2=C1C(=O)CC(C)(C)C2` (some centres undefined) [US20250313563, Compound 943989], the IC50 in assay [1] and in assay [2] was > 5 µM in each case.
For the molecule `CC[C@@]1(c2ccccc2)C2=CN=NC2NC2=C1C(=O)CC(C)(C)[C@H]2F` (some centres undefined) [US20250313563, Compound 957200], the IC50 in assay [1] was 0.1 to 1 µM and > 5 µM; in assay [2] it was 0.1 to 1 µM and > 5 µM.
Take `CC[C@]1(c2cccc(-c3ccnc(OC)c3)c2)C2=CN=NC2NC2=C1C(=O)CC(C)(C)C2` (some centres undefined) [US20250313563, Compound 911988]: the IC50 was < 0.1 µM and 0.1 to 1 µM in assay [1]; 0.1 to 1 µM and > 5 µM in assay [2].
Regarding `CCC1(c2cccc(-c3ccncc3F)c2)C2=C(CC(C)(C)CC2=O)NC2N=NC(C(F)(F)F)=C21` (centres undefined) [US20250313563, Compound 945528], the IC50 in assay [1] was < 0.1 µM; in assay [2], < 0.1 µM and 0.1 to 1 µM.
Take `CCC1(c2cccc(N(C(C)=O)C3CCCC3)c2)C2=CN=NC2NC2=C1C(=O)CC(C)(C)C2` (centres undefined) [US20250313563, Compound 912069]: the IC50 in assay [1] and in assay [2] was < 0.1 µM each time.
As for `CC[C@@]1(c2cccc(C(F)(F)F)c2)C2=CN=NC2NC2=C1C(=O)N(c1cn(C)c(C)n1)CC2` (some centres undefined) [US20250313563, Compound 952479], the IC50 in assay [1] and in assay [2] was > 5 µM each time.
As for `CC[C@@]1(c2cccc(Br)c2)C2=CN=NC2NC2=C1C(=O)C[C@H](C(F)(F)F)C2` (some centres undefined) [US20250313563, Compound 826654], the IC50 in assay [1] and in assay [2] was > 5 µM each time.
For `CC[C@]1(c2ccccc2)C2=CN=NC2NC2=C1C(=O)CC1(CC1)C2` (some centres undefined) [US20250313563, Compound 790615], the IC50 in assay [1] was < 0.1 µM; in assay [2] it was 0.1 to 1 µM.
Regarding `CCC1(c2cccc(-c3cc(OC)ncc3F)c2)C2=CN=NC2NC2=C1C(=O)CC(C)(C)C2` (centres undefined) [US20250313563, Compound 932630], the IC50 in assay [1] and in assay [2] was < 0.1 µM each time.
Consider `CC[C@]1(c2cccc(-c3ccnc(C)c3)c2)C2=CN=NC2NC2=C1C(=O)N[C@]1(CCOC1)C2` (some centres undefined) [US20250313563, Compound 948141], for which the results for the IC50 in assay [1] and in assay [2] were 1 to 5 µM and > 5 µM, respectively.
The matching figures for `CC[C@@]1(c2cccc(C(F)(F)F)c2)C2=CN=NC2NC2=C1C(=O)N(c1cnn(C)c1)CC2` (some centres undefined) [US20250313563, Compound 949271]: 0.1 to 1 µM and > 5 µM.
The matching figures for `CC1(C)CC(=O)C2=C(C1)NC1=C(CN=N1)C21CCN(S(=O)(=O)c2ccc3c(c2)OCCO3)CC1` [US20250313563, Compound 947900]: < 0.1 µM and < 0.1 µM.
For `CC[C@@]1(c2cccc(N3CCC[C@H]3C)c2)C2=CN=NC2NC2=C1C(=O)CC(C)(C)C2` (some centres undefined) [US20250313563, Compound 918322] the same measures were > 5 µM and > 5 µM.
With `CC[C@@]1(c2ccccc2)C2=CN=NC2NC2=C1C(=O)C[C@@H](C)C2` (some centres undefined) [US20250313563, Compound 789013], the values for the IC50 in assay [1] and in assay [2] were 0.1 to 1 µM and > 5 µM, respectively.
`CC1OCCC12C1=C(N=NC1)NC1=C2C(=O)CC(C)(C)C1` (centres undefined) [US20250313563, Compound 911958]: the IC50 in assay [1] and in assay [2] was > 5 µM in each case.
On to `CC1(C)CC(=O)C2=C(C1)NC1=C(CN=N1)C21CCCCC1` [US20250313563, Compound 826650], for which the IC50 in assay [1] and in assay [2] was < 0.1 µM each time.
As for `CC[C@]1(c2cccc(C(F)(F)F)c2)C2=C(N=NC2)NC2=C1C(=O)N(C)C2(C)C` [US20250313563, Compound 918251], the IC50 in assay [1] and in assay [2] was > 5 µM in each case.
On to `CC[C@]1(c2cccc(-c3ccnn3C)c2)C2=CN=NC2NC2=C1C(=O)NC(C)(C)C2` (some centres undefined) [US20250313563, Compound 927389], for which the IC50 in assay [1] was < 0.1 µM and 0.1 to 1 µM; in assay [2], < 0.1 µM and 1 to 5 µM.
With `CCC1(c2cccc(N(C)c3ccc(OC)nc3)c2)C2=CN=NC2NC2=C1C(=O)CC(C)(C)C2` (centres undefined) [US20250313563, Compound 913252], the IC50 in assay [1] and in assay [2] was 0.1 to 1 µM in each case.
Regarding `COCCN1CC2(C1)C1=C(N=NC1)NC1=C2C(=O)CC(C)(C)C1` [US20250313563, Compound 943544], the IC50 in assay [1] and in assay [2] was > 5 µM throughout.
Take `CC[C@]1(c2cccc(N3CCOc4ccccc43)c2)C2=CN=NC2NC2=C1C(=O)CC(C)(C)C2` (some centres undefined) [US20250313563, Compound 932635]: the IC50 in assay [1] and in assay [2] was > 5 µM each time.
As for `CC[C@@]1(c2cccc(-c3cncn3C)c2)C2=CN=NC2NC2=C1C(=O)NC(C)(C)C2` (some centres undefined) [US20250313563, Compound 947820], the IC50 in assay [1] and in assay [2] was 0.1 to 1 µM each time.
In the case of `CCC1(c2cccc(N(C)c3ncccn3)c2)C2=C(CC(C)(C)NC2=O)NC2N=NC(C(F)(F)F)=C21` (centres undefined) [US20250313563, Compound 948176], the 50% inhibitory concentration (IC50) in assay [1] and in assay [2] was < 0.1 µM throughout.
On to `CC1(C)CC(=O)C2=C(C1)NC1N=NC(C(F)(F)F)=C1C21CCc2c(F)cccc21` (centres undefined) [US20250313563, Compound 801356], for which the IC50 in assay [1] and in assay [2] was < 0.1 µM each time.
As to `CCN(c1cccc([C@]2(CC)C3=CN=NC3NC3=C2C(=O)CC(C)(C)C3)c1)c1ncccn1` (some centres undefined) [US20250313563, Compound 947334], the IC50 lay in the range of 0.1 to 1 µM in assay [1] and 1 to 5 µM in assay [2].
In the case of `CC1(C)CC(=O)C2=C(C1)NC1=C(CN=N1)[C@]21CCN(S(=O)(=O)C2CCCC2)C1` [US20250313563, Compound 943482], the IC50 is < 0.1 µM and 0.1 to 1 µM in assay [1]; < 0.1 µM and 0.1 to 1 µM in assay [2].
As for `CCC1(c2cccc(-c3ccnc(CCO)c3)c2)C2=CN=NC2NC2=C1C(=O)CC(C)(C)C2` (centres undefined) [US20250313563, Compound 945992], the concentration for half-maximal inhibition (IC50) was < 0.1 µM in assay [1] and 0.1 to 1 µM in assay [2].
As for `CC1(C)CC(=O)C2=C(C1)NC1=C(CN=N1)C21CCCc2ccccc21` (centres undefined) [US20250313563, Compound 913219], the IC50 in assay [1] was < 0.1 µM; in assay [2] it was 0.1 to 1 µM.
Regarding `CCC1(c2cccc(-c3ccnc(N(C)C)c3)c2)C2=C(CC(C)(C)CC2=O)NC2N=NC(C)=C21` (centres undefined) [US20250313563, Compound 883990], the half-maximal inhibitory concentration (IC50) is < 0.1 µM in assay [1] and 0.1 to 1 µM in assay [2].
For `C[C@H]1C[C@@]2(CCN1S(C)(=O)=O)C1=CN=NC1NC1=C2C(=O)CC(C)(C)C1` (some centres undefined) [US20250313563, Compound 926827] the same measures were < 0.1 µM and < 0.1 µM.
As to `CC1(C)CC(=O)C2=C(C1)NC1=C(CN=N1)C21CCN(S(=O)(=O)c2c(F)cc(F)cc2F)CC1` [US20250313563, Compound 947484], the IC50 in assay [1] and in assay [2] was < 0.1 µM each time.
For the molecule `CCC1(c2cccc(C(C)(C)F)c2)C2=CN=NC2NC2=C1C(=O)N(C)CC2` (centres undefined) [US20250313563, Compound 913178], the values for the IC50 in assay [1] and in assay [2] were 0.1 to 1 µM and 1 to 5 µM, respectively.
For `CC[C@]1(c2cccc(-c3cnn(C)c3)c2)C2=CN=NC2NC2=C1C(=O)CC(C)(C)[C@@H]2F` (some centres undefined) [US20250313563, Compound 957504], the IC50 fell in the range of 0.1 to 1 µM in assay [1] and 1 to 5 µM in assay [2].
On to `CC[C@@]1(c2cccc(C(F)F)c2)C2=CN=NC2NC2=C1C(=O)NC(C)(C)C2` (some centres undefined) [US20250313563, Compound 949006], for which the IC50 in assay [1] is < 0.1 µM and 0.1 to 1 µM; in assay [2] it was 0.1 to 1 µM and > 5 µM.
With `CC[C@]1(c2cccc(C(F)(F)F)c2)C2=CN=NC2NC2=C1C(=O)N(c1cscn1)CC2` (some centres undefined) [US20250313563, Compound 952629], the IC50 is < 0.1 µM in assay [1] and 0.1 to 1 µM in assay [2].
On to `O=C1CC2(CCC2)CC2=C1C1(CCOCC1)C1=C(N=NC1)N2` [US20250313563, Compound 909208], for which the values for the IC50 in assay [1] and in assay [2] were < 0.1 µM and 0.1 to 1 µM, respectively.
For the molecule `CC1(C)CC(=O)C2=C(C1)NC1N=NC(CCC(F)(F)F)=C1[C@@]21CCc2c(F)cccc21` (some centres undefined) [US20250313563, Compound 874323], the IC50 in assay [1] and in assay [2] was 1 to 5 µM in each case.
Regarding `CCC1(c2cccc(-c3cc(C)ncc3F)c2)C2=CN=NC2NC2=C1C(=O)CC(C)(C)C2` (centres undefined) [US20250313563, Compound 917132], the IC50 in assay [1] and in assay [2] was < 0.1 µM throughout.
As for `CC[C@@]1(c2cccc(-c3ccnn3-c3ccc(F)cc3)c2)C2=CN=NC2NC2=C1C(=O)NC(C)(C)C2` (some centres undefined) [US20250313563, Compound 950822], the IC50 in assay [1] and in assay [2] was 0.1 to 1 µM each time.
As to `CC1(C)CC(=O)C2=C(C1)NC1=C(CN=N1)C21CCN(S(=O)(=O)c2cnnn2-c2ccccc2)CC1` [US20250313563, Compound 947466], the IC50 in assay [1] was < 0.1 µM; in assay [2] it was 0.1 to 1 µM.
With `CC[C@]1(c2ccccc2)C2=C(CC(C)(C)CC2=O)NC2N=NC(Br)=C21` (some centres undefined) [US20250313563, Compound 792341], the IC50 in assay [1] and in assay [2] was 0.1 to 1 µM each time.
As to `CCc1ncc(S(=O)(=O)N2CCC3(CC2)C2=C(N=NC2)NC2=C3C(=O)CC(C)(C)C2)s1` [US20250313563, Compound 947252], the IC50 in assay [1] and in assay [2] was < 0.1 µM in each case.
Turning to `CC[C@@]1(c2cccc(-c3c(C#N)c(C)nn3C)c2)C2=CN=NC2NC2=C1C(=O)NC(C)(C)C2` (some centres undefined) [US20250313563, Compound 951844], the results for the IC50 in assay [1] and in assay [2] were < 0.1 µM and 0.1 to 1 µM, respectively.
For the molecule `CC1(C)CC(=O)C2=C(C1)NC1=C(CN=N1)C21CCN(S(=O)(=O)c2cccc3ncccc23)CC1` [US20250313563, Compound 947469], the IC50 in assay [1] and in assay [2] was < 0.1 µM each time.
On to `CC[C@]1(c2cccc(-c3c(F)cncc3OC)c2)C2=CN=NC2NC2=C1C(=O)CC(C)(C)C2` (some centres undefined) [US20250313563, Compound 947511], for which the IC50 in assay [1] and in assay [2] was < 0.1 µM throughout.
